Experiments:
[1] = stability of Carbopol-based controlled release tablet versus moisture level; format: physicochemical; conditions: moisture removed from the system
Source text: Low moisture levels in certain Carbopol-based controlled release preparations may compromise the stability of the active ingredient cis-4-cyano-4-[3-(cyclopentyloxy)-4-methoxyphenyl]cyclohexane-1-carboxylic acid. High moisture levels may compromise the release rate of such formulations.
It is not known why this occurs when the moisture level is below 0.5% nor is it known how to stop this from occuring, other than to maintain the specified levels of hydration.
The technique for measuring moisture level in this representative tablet was as follows:
The analysis was performed using a Omnimark MARK2 Moisture Analyzer. The Unit determines the moisture content using Infrared heat to dry the sample at a programmed temperature of 120° Celsius with a standby temperature of 80° Celsius. It calculates the percent loss on drying from the initial weight and the final weight of the sample. The results are printed out as % w/w automatically when the analysis is finished. The analysis usually takes 2 to 3 minutes for one measurement of a sample with a moisture level of less than 1.5%w/w.

[2] = oral administration of the PDE4 inhibitor in COPD: effect and side effects; format: in vivo
PDE 4 = test: IC50 ratio (high/low affinity rolipram binding forms of PDE 4); format: biochemical; conditions: IC50 for competing with 1 nM [3H]R-rolipram binding (high affinity form) over IC50 for PDE 4 catalytic activity (low affinity form), 1 uM [3H]-cAMP
Source text: This invention covers controlled release formulations which contain a PDE 4 inhibitor, particularly an inhibitor that is specific for PDE 4. A preferred group of inhibitors are those that have an IC50 ratio (high/low binding) of about 0.1 or greater as further described in co-pending U.S. application Ser. No. 08/456,274, now U.S. Pat. No. 6,143,782 and its published counter-part PCT application serial number published Jan. 05, 1995 as WO95/00139; this application is incorporated herein in full by reference as if fully set forth herein. A preferred standard for PDE 4-specific inhibitors which can be used in this invention is one where the compound has an IC50 ratio of about 0.1 or greater; said ratio being the ratio of the IC50 value for competing with the binding of 1 nM of [^3H]R-rolipram to a form of PDE 4 which binds rolipram with a high affinity over the IC50 value for inhibiting the PDE 4 catalytic activity of a form which binds rolipram with a low affinity using 1 uM[^3H]-cAMP as the substrate.

COc1ccc([C@]2(C#N)CC[C@@H](C(=O)O)CC2)cc1OC1CCCC1 [cis-4-cyano-4-[3-(cyclopentyloxy)-4-methoxyphenyl]cyclohexane-1-carboxylic acid]
stability in combination with dibasic calcium phosphate (anhydrous) [1]: appears to be unstable when moisture is removed from the system | therapeutic effect in COPD ([2]; administered orally, at certain doses): achieve an effective therapeutic effect in COPD at certain doses | side effects ([2]; as blood levels increase with increased levels of dosing): undesirable side effects such as those attributed to CNS activity begin to be manifested | therapeutic ratio (IC50 ratio high/low binding) (PDE 4): greater than 0.1

Reference: US6713509B1, “Controlled release formulation for treating COPD” (SmithKline Beecham Corporation, priority 1999, dated 2004)
